Drawing on patent publication US8519188B2, “Compounds which can be used for the treatment of cancers” (Marc-Henry Pitty, priority 2008, dated 2013), this text covers IC50 for 31 compounds.

The subject of test [1] is MCF-7/adr adriamycin-resistant breast cancer cell line. The test is described as follows: Cell proliferation (CellTiter 96 AQueous MTS/PMS), MCF-7/adr. Conditions: Homo sapiens, NCI/ADR-RES; MCF-7/adr; 72 hours of incubation; concentration that induces the death of 50% of the cells; read-out: CI50 for various cell lines (nM) MCF-7/adr. Format: cell-based. As for the experimental part: (§1) The effects of the compounds of the invention on the proliferation of cancer cells were studied on various human cancer cell lines of various tissue origins (MCF-7: breast cancer, MCF-7/adr adriamycin-resistant breast cancer, ARH-77: myeloma, ARH-77/Dox: doxorubicin (other name for adriamycin)-resistant myeloma, HL-60: acute promyelocytic leukaemia, HL-60/R10: doxorubicin-resistant acute promyelocytic leukaemia). The cancer cells used for this study were incubated at 37° C. in the presence of one of the compounds of the invention added to the culture medium at various concentrations.
(§2) The cancer cell lines originate from the ATCC (American Type Culture Collection) in the case of MCF-7, ARH-77 and HL-60, from Pharmacell (Paris, France) for HL-60/R10, from Oncodesign (Dijon, France) for ARH-77/Dox and from the Pitié Salpetrière Hospital for MCF-7/adr. They were cultivated in a RPMI 1640 medium containing 2 mM L-glutamine and supplemented with 10% foetal calf serum. All the cell lines were maintained in culture at 37° C. in a moist atmosphere containing 5% CO2. Cell proliferation was evaluated using the “CellTiter 96® AQueous” reagent (Promega, Wis., USA) while adhering to the manufacturer's instructions. The cells were seeded in 96-well culture plates in a proportion of from 5,000 to 10,000 cells per well in 200 μl of culture medium. After 24 hours of preincubation at 37° C., the compounds of the invention dissolved in dimethyl sulphoxide (DMSO) were added individually to each of the wells in a proportion of 2 μl per well. After 72 hours of incubation at 37° C. in a moist atmosphere containing 5% CO2, 40 μL of a MTS/PMS ([3-(4,5-dimethylthiazol-2-yl)-5-(3-carboxymethoxyphenyl)-2-(4-sulphophenyl)-2H-tetrazolium phenazine methosulphate) solution were added to each well.

Test [2] has as its system MCF-7 breast cancer cell line. The test is described as follows: Cell proliferation (CellTiter 96 AQueous MTS/PMS), MCF-7. In kind it is cell-based. Conditions: Homo sapiens, MCF7; MCF-7; 72 hours of incubation; concentration that induces the death of 50% of the cells; read-out: CI50 for various cell lines (nM) MCF-7. As for the experimental part:
as §1, §2

For `C#CC(=O)N(C(C(=O)NCc1ccccc1)c1cccs1)[C@@H](C)c1ccccc1` (stereo partly drawn) [Compound 8, Propynoic Acid (benzylcarbamoylthiophen-2-yl-methyl)-((S)-1-phenylethyl)amide], the IC50 in test [1] came out at 30 nM. For the compound `C#CC(=O)N(C(C(=O)NCc1ccccc1)c1cccs1)[C@H](C)c1ccccc1` (stereo partly drawn) [Compound 9, Propynoic Acid (benzylcarbamoylthiophen-2-yl-methyl)-((R)-1-phenylethyl)amide], in test [1], the IC50 was determined as 30 nM. As to `C#CC(=O)N(CC(C)C)C(C(=O)NC1CCCCC1)c1cccs1` (stereo not shown) [Compound 12, Propynoic Acid (cyclohexylcarbamoylthiophen-2-yl-methyl)isobutylamide], the IC50 in test [1] stood at 30 nM. On the same count and under the same terms, then `C#CC(=O)N(CC(C)C)C(C(=O)NCc1ccccc1)c1cccs1` (stereo not shown) [Compound 16, Propynoic Acid (benzylcarbamoylthiophen-2-yl-methyl)isobutylamide], with 1 nM; and `C#CC(=O)N(CC1CC1)C(C(=O)NCc1ccccc1)c1cccs1` (stereo not shown) [Compound 18, Propynoic Acid (benzylcarbamoylthiophen-2-yl-methyl)cyclopropylmethylamide], with 30 nM. Consider `C#CC(=O)N(c1cccc(C(F)(F)F)c1)C(C(=O)NC1CCCCC1)c1ccc(C)s1` (stereo not shown) [Compound 19, Propynoic Acid [cyclohexylcarbamoyl-(5-methylthiophen-2-yl)-methyl]-(3-trifluoromethylphenyl)amide], for which the IC50 was found to be 1.4 nM in test [1] and 340 nM in test [2].

For the compound `C#CC(=O)N(c1cccc([N+](=O)[O-])c1)C(C(=O)NC1CCCCC1)c1cccs1` (stereo not shown) [Compound 27, Propynoic Acid (cyclohexylcarbamoylthiophen-2-yl-methyl)-(3-nitrophenyl)amide], the IC50 was determined as 0.8 nM in test [1] and 110 nM in test [2].

In the case of `C#CC(=O)N(c1ccc(-c2csnn2)cc1)C(C(=O)NC1CCCCC1)c1cccs1` (stereo not shown) [Compound 28, Propynoic Acid (cyclohexylcarbamoylthiophen-2-yl-methyl)-(4-[1,2,3]thiadiazol-4-yl-phenyl)amide], the values for the IC50 in test [1] and in test [2] were 2.2 nM and 70 nM, respectively. Turning to `C#CC(=O)N(c1ccc(C(O)(C(F)(F)F)C(F)(F)F)cc1)C(C(=O)NC1CCCCC1)c1cccs1` (stereo not shown) [Compound 29, Propynoic Acid (cyclohexylcarbamoylthiophen-2-yl-methyl)-[4-(2,2,2-trifluoro-1-hydroxy-1-trifluoromethylethyl)phenyl]amide], the IC50 was 18 nM in test [1] and 877 nM in test [2].

With `C#CC(=O)N(c1ccc(N(CC)CC)cc1)C(C(=O)NC1CCCCC1)c1cccs1` (stereo not shown) [Compound 32, Propynoic Acid (cyclohexylcarbamoylthiophen-2-yl-methyl)-(4-diethylaminophenyl)amide], the results for the IC50 in test [1] and in test [2] were 2.9 nM and 1260 nM, respectively.

As to `C#CC(=O)N(c1ccccc1Cl)C(C(=O)NC1CCCCC1)c1cccs1` (stereo not shown) [Compound 33, Propynoic Acid (2-chlorophenyl)(cyclohexylcarbamoylthiophen-2-yl-methyl)amide], the figures for the IC50 in test [1] and in test [2] were 2.7 nM and 736 nM, respectively. For `C#CC(=O)N(c1cccc(-c2ccnc(C)n2)c1)C(C(=O)NC1CCCCC1)c1cccs1` (stereo not shown) [Compound 38, Propynoic Acid (cyclohexylcarbamoylthiophen-2-yl-methyl)-[3-(2-methylpyrimidin-4-yl)-phenyl]amide], in that order: 1.9 nM and 272 nM. Turning to `C#CC(=O)N(c1ccc(Cl)cc1)C(C(=O)NC1CCCCC1)c1cccs1` (stereo not shown) [Compound 41, Propynoic Acid (4-chlorophenyl)(cyclohexylcarbamoylthiophen-2-yl-methyl)amide], the IC50 in test [1] turned out to be 3.2 nM; in test [2] it was 158 nM.

As to `C#CC(=O)N(c1ccc(N2CCOCC2)cc1)C(C(=O)NC1CCCCC1)c1cccs1` (stereo not shown) [Compound 48, Propynoic Acid (cyclohexylcarbamoylthiophen-2-yl-methyl)-(4-morpholin-4-yl-phenyl)amide], in test [1], the IC50 was found to be 1 nM.

For `C#CC(=O)N(c1ccc2[nH]ncc2c1)C(C(=O)NC1CCCCC1)c1cccs1` (stereo not shown) [Compound 49, Propynoic Acid (cyclohexylcarbamoylthiophen-2-yl-methyl)-(1H-indazol-5-yl)-amide], the IC50 in test [1] was 1 nM; in test [2], 220 nM.

Consider `C#CC(=O)N(c1ccc(F)cc1F)C(C(=O)NC1CCCCC1)c1cccs1` (stereo not shown) [Compound 50, Propynoic Acid (cyclohexylcarbamoylthiophen-2-yl-methyl)-(2,4-difluorophenyl)amide], for which the IC50 in test [1] stood at 2 nM; in test [2] it was 282 nM.

For the compound `C#CC(=O)N(c1ccc(C(C)(C)C)cc1)C(C(=O)NC1CCCCC1)c1cccs1` (stereo not shown) [Compound 52, Propynoic Acid (4-tert-butylphenyl)(cyclohexylcarbamoylthiophen-2-yl-methyl)amide], the values for the IC50 in test [1] and in test [2] were 3.5 nM and 708 nM, respectively. `C#CC(=O)N(c1ccc(C#N)cc1)C(C(=O)NC1CCCCC1)c1cccs1` (stereo not shown) [Compound 53, Propynoic Acid (4-cyanophenyl)(cyclohexylcarbamoylthiophen-2-yl-methyl)amide]: the IC50 in test [1] is 2.8 nM; in test [2], 372 nM. On to `C#CC(=O)N(c1ccccc1C#N)C(C(=O)NC1CCCCC1)c1cccs1` (stereo not shown) [Compound 54, Propynoic Acid (2-cyanophenyl)(cyclohexylcarbamoylthiophen-2-yl-methyl)amide], for which the IC50 in test [1] was found to be 2.9 nM; in test [2], 224 nM. Turning to `C#CC(=O)N(c1ccc(Oc2ccccc2)cc1)C(C(=O)NC1CCCCC1)c1cccs1` (stereo not shown) [Compound 55, Propynoic Acid (cyclohexylcarbamoylthiophen-2-yl-methyl)-(4-phenoxyphenyl)amide], the results for the IC50 in test [1] and in test [2] were 2.4 nM and 694 nM, respectively.

Take `C#CC(=O)N(c1cccc(C#C)c1)C(C(=O)NC1CCCCC1)c1cccs1` (stereo not shown) [Compound 56, Propynoic Acid (cyclohexylcarbamoylthiophen-2-yl-methyl)-(3-ethynylphenyl)amide]: the results for the IC50 in test [1] and in test [2] were 1.4 nM and 640 nM, respectively. Take `C#CC(=O)N(c1ccc(C(C)C)cc1)C(C(=O)NC1CCCCC1)c1cccs1` (stereo not shown) [Compound 57, Propynoic Acid (cyclohexylcarbamoylthiophen-2-yl-methyl)-(4-isopropylphenyl)amide]: the IC50 in test [1] stood at 8.1 nM; in test [2] it was 599 nM. On the same counts, the results for `C#CC(=O)N(c1cccc(-c2ccccc2)c1)C(C(=O)NC1CCCCC1)c1cccs1` (stereo not shown) [Compound 58, Propynoic acid biphenyl-3-yl-(cyclohexylcarbamoylthiophen-2-yl-methyl)amide] are 2.4 nM and 580 nM. On to `C#CC(=O)N(c1ccccc1C)C(C(=O)NC1CCCCC1)c1cccs1` (stereo not shown) [Compound 60, Propynoic Acid (cyclohexylcarbamoylthiophen-2-yl-methyl)-o-tolylamide], for which the IC50 in test [1] came out at 3.5 nM; in test [2] it was 357 nM. Take `C#CC(=O)N(c1cccc(C(F)(F)F)c1)C(C(=O)NC1CCCCC1)c1ccc2c(c1)OCO2` (stereo not shown) [Compound 63, Propynoic Acid (benzo[1,3]dioxol-5-yl-cyclohexylcarbamoylmethyl)-(3-trifluoromethylphenyl)amide]: the values for the IC50 in test [1] and in test [2] were 2 nM and 401 nM, respectively. For the compound `C#CC(=O)N(c1cccc(C(F)(F)F)c1)C(C(=O)NC1CCCCC1)c1ccccc1` (stereo not shown) [Compound 66, Propynoic Acid (cyclohexylcarbamoyl phenylmethyl)-(3-trifluoromethylphenyl)amide], in test [1], the IC50 worked out at 1 nM. For the compound `C#CC(=O)N(c1cccc(C(F)(F)F)c1)C(C(=O)NC1CCCCC1)c1ccccc1F` (stereo not shown) [Compound 72, Propynoic Acid [cyclo hexylcarbamoyl-(2-fluorophenyl)methyl]-(3-trifluoromethylphenyl)amide], the results for the IC50 in test [1] and in test [2] were 3 nM and 619 nM, respectively. For `C#CC(=O)N(c1cccc(C(F)(F)F)c1)C(C(=O)NC1CCCCC1)c1ccc(F)cc1` (stereo not shown) [Compound 74, Propynoic Acid [cyclohexylcarbamoyl-(4-fluorophenyl)methyl]-(3-trifluoromethylphenyl)amide], in that order: 2.9 nM and 506 nM. For `C#CC(=O)N(c1cccc(C(F)(F)F)c1)C(C(=O)NC1CCCCC1)c1ccc(N(C)C)cc1` (stereo not shown) [Compound 76, Propynoic Acid [cyclohexylcarbamoyl-(4-dimethylaminophenyl)methyl]-(3-trifluoromethylphenyl)amide], the IC50 in test [1] is 1.5 nM. Same read-out and setting: then `C#CC(=O)N(c1cccc2ccccc12)C(C(=O)NC1CCCCC1)c1ccccc1` (stereo not shown) [Compound 176], with 1.9 nM; and `C#CC(=O)N(Cc1ccc2c(c1)OCO2)C(C(=O)NCc1ccccc1)c1ccccc1F` (stereo not shown) [Compound 181], with 0.2 nM.
